Laboratory results taken from PubChem BioAssay AID588540 (NMMLSC, 2011).
Active and inactive are the calls of the source.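 Rule for the calls: active = viability below 80%, treated as toxic; inactive = the rest.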

Each compound was assayed on HEK-293 viability, CellTiter-Glo, 3 days (assay: HEK-293 cell cytotoxicity, late-stage follow-up, cytotoxicity control for GRK2 aptamer-displacement inhibitor project, powder set 1, set 2 (AID 588540)). Conditions: at 20 µM; active compounds read low.

Row | Structure (SMILES) | viability
1 | CC(CS(=O)(=O)c1ccc2c(c1)NC(=O)CS2)C(=O)NCc1ccccc1Cl (stereo not drawn) | 119% (inactive)
2 | COc1ccc(NC(=O)CCS(=O)(=O)c2ccc(Br)s2)cc1 | 86.8% (inactive)
3 | COc1ccc([N+](=O)[O-])cc1NC(=O)CCS(=O)(=O)c1ccc(Br)cc1 | 118% (inactive)
4 | COC(=O)c1ccc(NC(=O)CCS(=O)(=O)c2ccc(Br)cc2)cc1 | 126% (inactive)
5 | Cc1ccc(CCNC(=O)CCS(=O)(=O)c2ccc(Br)cc2)cc1 | 126% (inactive)
6 | O=C(O)Cc1ccc(-n2cccc2)cc1 | 125% (inactive)
7 | CCN(CC)c1ccc(NC(=O)CCS(=O)(=O)c2ccc(Br)cc2)c(C)c1 | 97.3% (inactive)
8 | COc1ccc(CCNC(=O)CCS(=O)(=O)c2ccc(Br)cc2)cc1OC | 120% (inactive)
9 | CC(=O)N1CCN(Cc2nc3cc(Cl)ccc3c(=O)[nH]2)CC1 | 124% (inactive)
10 | Cc1ccccc1NC(=O)CCS(=O)(=O)c1ccc(Br)s1 | 94.2% (inactive)
11 | COc1ccc(Cl)cc1NC(=O)CCS(=O)(=O)c1ccc(Br)cc1 | 106% (inactive)
12 | Cc1cccc(CCNC(=O)CCS(=O)(=O)c2ccc(Br)cc2)c1 | 129% (inactive)
13 | O=C(CN1CCc2ccccc21)NC(=O)NCc1ccccc1 | 56.1%
14 | Cc1cc2ccccc2n1CCNC(=O)C(C)Oc1ccccc1 (stereo not drawn) | 68.6%
15 | O=C(CCS(=O)(=O)c1ccc(Br)cc1)NCc1cccs1 | 131% (inactive)
16 | O=C(CCS(=O)(=O)c1ccc(Br)cc1)Nc1ccc(Br)cc1F | 116% (inactive)
17 | CCOc1ccccc1NC(=O)CCS(=O)(=O)c1ccc(Br)cc1 | 79.5% (inactive)
18 | O=C(CCS(=O)(=O)c1ccc(Br)s1)Nc1ccccc1Br | 71.3%
19 | C#CCSc1nc2sc3c(c2c(=O)n1C)CCC3 | 92.8% (inactive)
20 | O=C(CSc1nc2ccccc2c(=O)n1-c1ccccc1)NC(=O)CN1CCCC1=O | 116% (inactive)
21 | NS(=O)(=O)c1ccc(CCNC(=O)CCS(=O)(=O)c2ccc(Br)cc2)cc1 | 124% (inactive)
22 | CCOc1ccc(NC(=O)CCS(=O)(=O)c2ccc(Br)cc2)cc1 | 108% (inactive)
23 | COC(=O)c1ccccc1NC(=O)CCS(=O)(=O)c1ccc(Br)s1 | 81.6% (inactive)
